Source: patent US12503475B2 (Centessa Pharmaceuticals (UK) Limited, priority 2020, dated 2025)

Target: T1, human orexin type 2 receptor (hOX2R) (Homo sapiens, UniProt O43614)
T1 construct: expressed in transfected cells
T1 sequence (O43614 1-444): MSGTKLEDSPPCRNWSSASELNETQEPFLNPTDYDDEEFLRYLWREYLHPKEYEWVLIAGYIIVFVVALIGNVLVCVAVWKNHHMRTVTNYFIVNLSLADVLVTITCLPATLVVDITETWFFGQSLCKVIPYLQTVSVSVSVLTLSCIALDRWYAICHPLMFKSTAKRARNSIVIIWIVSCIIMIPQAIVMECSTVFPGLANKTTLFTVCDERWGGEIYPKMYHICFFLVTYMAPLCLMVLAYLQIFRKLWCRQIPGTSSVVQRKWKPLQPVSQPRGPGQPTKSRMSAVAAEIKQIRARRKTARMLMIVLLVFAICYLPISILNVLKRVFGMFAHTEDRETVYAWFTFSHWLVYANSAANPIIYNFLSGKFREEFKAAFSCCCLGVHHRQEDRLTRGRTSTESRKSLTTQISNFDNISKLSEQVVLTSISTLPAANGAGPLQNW
Assay: Measurement of orexin type 2 receptor agonist activity (FLIPR calcium fluorescence)
Format: cell-based
Conditions: CHO cells expressing hOX2R, FLIPR calcium fluorescence; for EC50: read-out: hOx2 pEC50 (converted); for Emax: CHO, read-out: hOx2 Emax (%)
How it was run: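 Agonism was read as fluorescence in cells stably expressing human OX2R. E. is the response at 10 μM relative to orexin A as full agonist (100%).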

Compound	EC50 [nM]	Emax [%]	hOx2 Emax (%)	hOx2 pEC50
CO[C@H]1CCN(C(=O)N2CC3(CC3)[C@H](NS(C)(=O)=O)[C@@H]2Cc2cccc(-c3ccccc3)c2F)C1 [Compound 313, N-((6S,7S)-6-((2-fluoro-[1,1′-biphenyl]-3-yl)methyl)-5-((S)-3-methoxypyrrolidine-1-carbonyl)-5-azaspiro[2.4]heptan-7-yl)methanesulfonamide]	10 to 100	90 to 100		
O=C([C@@H](O)C1CC1)N1CC2(CC2)[C@H](NS(=O)(=O)C(F)F)[C@@H]1Cc1cccc(-c2cc(F)cc(F)c2)c1F [Compound 377, N-((6S,7S)-5-((S)-2-cyclopropyl-2-hydroxyacetyl)-6-((2,3′,5′-trifluoro-[1,1′-biphenyl]-3-yl)methyl)-5-azaspiro[2.4]heptan-7-yl)-1,1-difluoromethanesulfonamide]	0.0794 to 1	90 to 100		
CCS(=O)(=O)N[C@@H]1[C@H](Cc2cccc(-c3ccccc3)c2F)N(C(=O)[C@H]2CCO2)CC12CC2 [Compound 53, N-((6S,7S)-6-((2-fluoro-[1,1′-biphenyl]-3-yl)methyl)-5-((R)-oxetane-2-carbonyl)-5-azaspiro[2.4]heptan-7-yl)ethanesulfonamide]	1 to 10	90 to 100		
CCS(=O)(=O)N[C@@H]1[C@H](Cc2cccc(-c3ccccc3)c2F)N(C(=O)[C@H](O)COC)CC12CC2 [Compound 344, N-((6S,7S)-6-((2-fluoro-[1,1′-biphenyl]-3-yl)methyl)-5-((R)-2-hydroxy-3-methoxypropanoyl)-5-azaspiro[2.4]heptan-7-yl)ethanesulfonamide]	1 to 10	90 to 100		
CS(=O)(=O)N[C@@H]1[C@H](Cc2cccc(-c3ccccc3)c2F)N(C(=O)N2CCC2)CC12CC2 [Compound 35, N-((6S,7S)-5-(azetidine-1-carbonyl)-6-((2-fluoro-[1,1′-biphenyl]-3-yl)methyl)-5-azaspiro[2.4]heptan-7-yl)methanesulfonamide]	1 to 10	90 to 100		
CS(=O)(=O)N[C@@H]1[C@H](Cc2cccc(-c3ccccc3)c2)N(C(=O)[C@H](O)C(F)(F)F)CC12CC2 [Compound 43, N-((6S,7S)-6-([1,1′-biphenyl]-3-ylmethyl)-5-((S)-3,3,3-trifluoro-2-hydroxypropanoyl)-5-azaspiro[2.4]heptan-7-yl)methanesulfonamide]	1 to 10		A (Emax ranging between 90 and 100)	
CN(C)S(=O)(=O)N[C@@H]1[C@H](Cc2cc(F)cc(-c3ccccc3)c2F)N(C(=O)C2CCO2)CC12CC2 (stereo partly drawn) [Compound 347, N-((6S,7S)-6-((2,5-difluoro-[1,1′-biphenyl]-3-yl)methyl)-5-((R)-oxetane-2-carbonyl)-5-azaspiro[2.4]heptan-7-yl)-N,N-dimethylsulfuric diamide]	1 to 10	90 to 100		
CS(=O)(=O)N[C@@H]1[C@H](Cc2cccc(-c3ccccc3)c2)N(C(=O)[C@H](O)C(F)F)CC12CC2 [Compound 70, N-((6S,7S)-6-([1,1′-biphenyl]-3-ylmethyl)-5-((S)-3,3-difluoro-2-hydroxypropanoyl)-5-azaspiro[2.4]heptan-7-yl)methanesulfonamide]	1 to 10	90 to 100		
C[C@@H](F)C(=O)N1CC2(CC2)[C@H](NS(=O)(=O)CF)[C@@H]1Cc1cc(F)cc(-c2cc(F)cc(F)c2)c1F [Compound 414, 1-fluoro-N-((6S,7S)-5-((R)-2-fluoropropanoyl)-6-((2,3′,5,5′-tetrafluoro-[1,1′-biphenyl]-3-yl)methyl)-5-azaspiro[2.4]heptan-7-yl)methanesulfonamide]	0.0794 to 1	90 to 100		
CCNC(=O)N1CC2(CC2)[C@H](NS(=O)(=O)CC)[C@@H]1Cc1cccc(-c2ccccc2)c1F [Compound 89]			A (Emax ranging between 90 and 100)	***** (pEC50 ranging between 9.0 and 10.1)
CC(C)(O)C(=O)N1CC2(CC2)[C@H](NS(=O)(=O)C(F)F)[C@@H]1Cc1cccc(-c2cc(F)cc(F)c2)c1F [Compound 195, 1,1-difluoro-N-((6S,7S)-5-(2-hydroxy-2-methylpropanoyl)-6-((2,3′,5′-trifluoro-[1,1′-biphenyl]-3-yl)methyl)-5-azaspiro[2.4]heptan-7-yl)methanesulfonamide]	1 to 10	90 to 100		
C[C@@H](CC#N)NC(=O)N1CC2(CC2)[C@H](NS(C)(=O)=O)[C@@H]1Cc1cccc(-c2ccccc2)c1F [Compound 318, (6S,7S)-N-((S)-1-cyanopropan-2-yl)-6-((2-fluoro-[1,1′-biphenyl]-3-yl)methyl)-7-(methylsulfonamido)-5-azaspiro[2.4]heptane-5-carboxamide]	1 to 10	90 to 100		
O=C([C@H]1CCO1)N1CC2(CC2)[C@H](NS(=O)(=O)C(F)F)[C@@H]1Cc1cccc(-c2cc(F)ccc2F)c1F [Compound 171, 1,1-difluoro-N-((6S,7S)-5-((R)-oxetane-2-carbonyl)-6-((2,2′,5′-trifluoro-[1,1′-biphenyl]-3-yl)methyl)-5-azaspiro[2A]heptan-7-yl)methanesulfonamide]	1 to 10	90 to 100		
COC[C@@H](O)C(=O)N1CC2(CC2)[C@H](NS(=O)(=O)CF)[C@@H]1Cc1cccc(-c2ccccc2)c1F [Compound 372, 1-fluoro-N-((6S,7S)-6-((2-fluoro-[1,1′-biphenyl]-3-yl)methyl)-5-((R)-2-hydroxy-3-methoxypropanoyl)-5-azaspiro[2.4]heptan-7-yl)methanesulfonamide]	1 to 10	90 to 100		
CS(=O)(=O)N[C@H]1[C@@H](Cc2cccc(-c3ccccc3)c2F)N(C(=O)[C@H]2CCO2)CC12CC2 [Compound 22, N-((6R,7R)-6-((2-fluoro-[1,1′-biphenyl]-3-yl)methyl)-5-((R)-oxetane-2-carbonyl)-5-azaspiro[2.4]heptan-7-yl)methanesulfonamide]	100 to 1000	90 to 100		
N#CC1(C(=O)N2CC3(CC3)[C@H](NS(=O)(=O)C(F)F)[C@@H]2Cc2cccc(-c3ccccc3)c2F)CCC1 [Compound 403]	1 to 10	90 to 100		
(6S,7S)-6-(2,5-difluoro-[1,1′- biphenyl]-3-yl)methyl)-7- ((difluoromethyl)sulfonamido)- N-((S)-1-fluoroethyl)-5- azaspiro[2.4]heptane-5- carboxamide [Compound 216]			A (Emax ranging between 90 and 100)	**** (pEC50 ranging between 8.0 and 9.0)
CO[C@@H](C)CNC(=O)N1CC2(CC2)[C@H](NS(C)(=O)=O)[C@@H]1Cc1cccc(-c2ccccc2)c1F [Compound 336, (6S,7S)-6-((2-fluoro-[1,1′-biphenyl]-3-yl)methyl)-N-((S)-2-methoxypropyl)-7-(methylsulfonamido)-5-azaspiro[2.4]heptane-5-carboxamide]	1 to 10	90 to 100		
COC[C@@H](C)NC(=O)N1CC2(CC2)[C@H](NS(C)(=O)=O)[C@@H]1Cc1cccc(-c2ccccc2)c1F [Compound 325, (6S,7S)-6-((2-fluoro-[1,1′-biphenyl]-3-yl)methyl)-N-((R)-1-methoxypropan-2-yl)-7-(methylsulfonamido)-5-azaspiro[2.4]heptane-5-carboxamide]	1 to 10	90 to 100		
